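Cells were grown in 96-well plates and exposed to each compound for 48 hours at five concentrations; endpoints were interpolated linearly between bracketing concentrations, or set to the highest concentration if not reached. At the TGI there is no net growth.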
Assays:
Experiment in all cases: NCI tumour cell line growth inhibition, 48 h
DMS 273 small cell lung = test system: DMS 273 small cell lung
HOP-62 NSCLC = test system: HOP-62 NSCLC
HCT-15 colon = test system: HCT-15 colon
HOP-18 NSCLC = test system: HOP-18 NSCLC
UO-31 renal = test system: UO-31 renal
CCRF-CEM leukemia = test system: CCRF-CEM leukemia
SK-MEL-2 melanoma = test system: SK-MEL-2 melanoma
SF-539 CNS = test system: SF-539 CNS
HCC-2998 colon = test system: HCC-2998 colon
UACC-62 melanoma = test system: UACC-62 melanoma
OVCAR-4 ovarian = test system: OVCAR-4 ovarian
SF-268 CNS = test system: SF-268 CNS
A498 renal = test system: A498 renal
SNB-19 CNS = test system: SNB-19 CNS
NCI/ADR-RES ovarian = test system: NCI/ADR-RES ovarian
P388/ADR leukemia = test system: P388/ADR leukemia
SN12K1 renal = test system: SN12K1 renal
RXF 393 renal = test system: RXF 393 renal
NCI-H23 lung = test system: NCI-H23 lung
COLO 205 colon = test system: COLO 205 colon
NCI-H226 lung = test system: NCI-H226 lung
A549 NSCLC = test system: A549 NSCLC
RPMI-8226 leukemia = test system: RPMI-8226 leukemia
LOX IMVI melanoma = test system: LOX IMVI melanoma
CAKI-1 renal = test system: CAKI-1 renal
SNB-78 CNS = test system: SNB-78 CNS
SW-620 colon = test system: SW-620 colon
SK-MEL-28 melanoma = test system: SK-MEL-28 melanoma
IGROV1 ovarian = test system: IGROV1 ovarian
MCF7 breast = test system: MCF7 breast
OVCAR-5 ovarian = test system: OVCAR-5 ovarian
OVCAR-3 ovarian = test system: OVCAR-3 ovarian
SK-OV-3 ovarian = test system: SK-OV-3 ovarian
DMS 114 small cell lung = test system: DMS 114 small cell lung
K-562 leukemia = test system: K-562 leukemia
NCI-H460 lung = test system: NCI-H460 lung
MOLT-4 leukemia = test system: MOLT-4 leukemia
HT29 colon = test system: HT29 colon
U251 CNS = test system: U251 CNS
KM20L2 colon = test system: KM20L2 colon
P388 leukemia = test system: P388 leukemia
HL-60(TB) leukemia = test system: HL-60(TB) leukemia
MALME-3M melanoma = test system: MALME-3M melanoma
DLD-1 colon = test system: DLD-1 colon
UACC-257 melanoma = test system: UACC-257 melanoma
SNB-75 CNS = test system: SNB-75 CNS
SF-295 CNS = test system: SF-295 CNS
HOP-92 NSCLC = test system: HOP-92 NSCLC
KM12 colon = test system: KM12 colon
HCT-116 colon = test system: HCT-116 colon
SN12C renal = test system: SN12C renal
NCI-H522 lung = test system: NCI-H522 lung
SK-MEL-5 melanoma = test system: SK-MEL-5 melanoma
EKVX NSCLC = test system: EKVX NSCLC
M19-MEL melanoma = test system: M19-MEL melanoma
OVCAR-8 ovarian = test system: OVCAR-8 ovarian
XF 498 CNS = test system: XF 498 CNS

Cc1c2cnccc2c(C)c2c1c1ccccc1n2CC1CO1 (stereo unspecified)
TGI (DMS 273 small cell lung): 2.43 µM | TGI (HOP-62 NSCLC): 3.34 µM | TGI (HCT-15 colon): 4.56 µM | TGI (HOP-18 NSCLC): 6.56 µM | TGI (UO-31 renal): 3.02 µM | TGI (CCRF-CEM leukemia): 1.28 µM | TGI (SK-MEL-2 melanoma): 3.44 µM | TGI (SF-539 CNS): 2.52 µM | TGI (HCC-2998 colon): 4.4 µM | TGI (UACC-62 melanoma): 8.19 µM | TGI (OVCAR-4 ovarian): 5.46 µM | TGI (SF-268 CNS): 2.09 µM | TGI (A498 renal): 0.581 µM | TGI (SNB-19 CNS): 5.59 µM | TGI (NCI/ADR-RES ovarian): 3.57 µM | TGI (P388/ADR leukemia): 1.61 µM | TGI (SN12K1 renal): 2.2 µM | TGI (RXF 393 renal): 1.92 µM | TGI (NCI-H23 lung): 8.4 µM | TGI (COLO 205 colon): 2.87 µM | TGI (NCI-H226 lung): 5.54 µM | TGI (A549 NSCLC): 4.85 µM | TGI (RPMI-8226 leukemia): 7.6 µM | TGI (LOX IMVI melanoma): 2.74 µM | TGI (CAKI-1 renal): 4.87 µM | TGI (SNB-78 CNS): 5.14 µM | TGI (SW-620 colon): 2.8 µM | TGI (SK-MEL-28 melanoma): 4.03 µM | TGI (IGROV1 ovarian): 5.99 µM | TGI (MCF7 breast): 2.91 µM | TGI (OVCAR-5 ovarian): 5.54 µM | TGI (OVCAR-3 ovarian): 3.76 µM | TGI (SK-OV-3 ovarian): 6.93 µM | TGI (DMS 114 small cell lung): 2.43 µM | TGI (K-562 leukemia): 3.24 µM | TGI (NCI-H460 lung): 2.52 µM | TGI (MOLT-4 leukemia): 0.328 µM | TGI (HT29 colon): 4.82 µM | TGI (U251 CNS): 9.1 µM | TGI (KM20L2 colon): 4.62 µM | TGI (P388 leukemia): 1.26 µM | TGI (HL-60(TB) leukemia): 0.597 µM | TGI (MALME-3M melanoma): 3.44 µM | TGI (DLD-1 colon): 4.58 µM | TGI (UACC-257 melanoma): 3.51 µM | TGI (SNB-75 CNS): 0.861 µM | TGI (SF-295 CNS): 3.2 µM | TGI (HOP-92 NSCLC): 4.31 µM | TGI (KM12 colon): 10.9 µM | TGI (HCT-116 colon): 5.07 µM | TGI (SN12C renal): 1.31 µM | TGI (NCI-H522 lung): 3.29 µM | TGI (SK-MEL-5 melanoma): 2.23 µM | TGI (EKVX NSCLC): 2.08 µM | TGI (M19-MEL melanoma): 2.94 µM | TGI (OVCAR-8 ovarian): 2.8 µM

CSc1nc(SC)c2cnn(CC3CO3)c2n1 (stereo unspecified)
TGI (DMS 273 small cell lung): > 54.6 µM | TGI (HOP-62 NSCLC): 41.2 µM | TGI (HCT-15 colon): > 61.4 µM | TGI (HOP-18 NSCLC): > 100 µM | TGI (UO-31 renal): 45 µM | TGI (CCRF-CEM leukemia): 70.5 µM | TGI (SK-MEL-2 melanoma): 31.7 µM | TGI (SF-539 CNS): 38.5 µM | TGI (HCC-2998 colon): 31.3 µM | TGI (UACC-62 melanoma): 33.5 µM | TGI (OVCAR-4 ovarian): 44.2 µM | TGI (SF-268 CNS): 33.9 µM | TGI (A498 renal): > 100 µM | TGI (SNB-19 CNS): > 100 µM | TGI (NCI/ADR-RES ovarian): 36.3 µM | TGI (P388/ADR leukemia): > 57 µM | TGI (SN12K1 renal): 21.6 µM | TGI (RXF 393 renal): 34 µM | TGI (NCI-H23 lung): 34.6 µM | TGI (COLO 205 colon): 35.5 µM | TGI (NCI-H226 lung): 38.7 µM | TGI (A549 NSCLC): 64.8 µM | TGI (RPMI-8226 leukemia): > 100 µM | TGI (LOX IMVI melanoma): 19.8 µM | TGI (SW-620 colon): > 44.7 µM | TGI (SK-MEL-28 melanoma): 18.6 µM | TGI (IGROV1 ovarian): 38.1 µM | TGI (MCF7 breast): 25.7 µM | TGI (OVCAR-5 ovarian): 41.3 µM | TGI (OVCAR-3 ovarian): > 65.1 µM | TGI (SK-OV-3 ovarian): > 100 µM | TGI (DMS 114 small cell lung): 32.6 µM | TGI (K-562 leukemia): > 100 µM | TGI (NCI-H460 lung): 40.8 µM | TGI (MOLT-4 leukemia): 7.73 µM | TGI (HT29 colon): 47.1 µM | TGI (U251 CNS): 45.4 µM | TGI (KM20L2 colon): 43.4 µM | TGI (P388 leukemia): > 54.5 µM | TGI (HL-60(TB) leukemia): 45.4 µM | TGI (MALME-3M melanoma): 45.2 µM | TGI (DLD-1 colon): 53.9 µM | TGI (UACC-257 melanoma): 37.4 µM | TGI (SNB-75 CNS): 44.7 µM | TGI (SF-295 CNS): 55.4 µM | TGI (KM12 colon): 39.2 µM | TGI (XF 498 CNS): 45.4 µM | TGI (HCT-116 colon): 31.9 µM | TGI (SN12C renal): > 50.1 µM | TGI (NCI-H522 lung): 77.3 µM | TGI (SK-MEL-5 melanoma): 17.8 µM | TGI (EKVX NSCLC): > 75.4 µM | TGI (M19-MEL melanoma): 27.1 µM | TGI (OVCAR-8 ovarian): 15.8 µM

COc1cccc2c1C(=O)c1c(O)c3c(c(O)c1C2=O)CC(O)(C(=O)CO)CC3OC1CC(N)C(I)C(C)O1 (stereo unspecified)
TGI (DMS 273 small cell lung): 7.03 µM | TGI (HOP-62 NSCLC): 13.9 µM | TGI (HCT-15 colon): 14.6 µM | TGI (HOP-18 NSCLC): 65.7 µM | TGI (UO-31 renal): 17.5 µM | TGI (CCRF-CEM leukemia): > 100 µM | TGI (SK-MEL-2 melanoma): 30.4 µM | TGI (SF-539 CNS): 11.8 µM | TGI (HCC-2998 colon): 27.1 µM | TGI (UACC-62 melanoma): 7.43 µM | TGI (OVCAR-4 ovarian): 26.9 µM | TGI (SF-268 CNS): > 100 µM | TGI (A498 renal): 21.4 µM | TGI (SNB-19 CNS): > 100 µM | TGI (NCI/ADR-RES ovarian): > 31.6 µM | TGI (P388/ADR leukemia): > 20.1 µM | TGI (SN12K1 renal): > 37.2 µM | TGI (RXF 393 renal): 25.2 µM | TGI (NCI-H23 lung): 15.1 µM | TGI (COLO 205 colon): > 100 µM | TGI (NCI-H226 lung): 2.95 µM | TGI (A549 NSCLC): > 55.1 µM | TGI (RPMI-8226 leukemia): > 100 µM | TGI (LOX IMVI melanoma): 9.15 µM | TGI (CAKI-1 renal): > 100 µM | TGI (SNB-78 CNS): > 100 µM | TGI (SW-620 colon): > 100 µM | TGI (SK-MEL-28 melanoma): > 100 µM | TGI (IGROV1 ovarian): 18.4 µM | TGI (MCF7 breast): 29.4 µM | TGI (OVCAR-5 ovarian): > 54.6 µM | TGI (OVCAR-3 ovarian): > 57.6 µM | TGI (SK-OV-3 ovarian): 18.6 µM | TGI (DMS 114 small cell lung): > 30.2 µM | TGI (K-562 leukemia): > 100 µM | TGI (NCI-H460 lung): 12.6 µM | TGI (MOLT-4 leukemia): > 100 µM | TGI (HT29 colon): > 100 µM | TGI (U251 CNS): 19.3 µM | TGI (KM20L2 colon): > 54.2 µM | TGI (HL-60(TB) leukemia): > 100 µM | TGI (MALME-3M melanoma): 25.1 µM | TGI (DLD-1 colon): 13.7 µM | TGI (UACC-257 melanoma): > 52.3 µM | TGI (SNB-75 CNS): > 100 µM | TGI (SF-295 CNS): 23.3 µM | TGI (HOP-92 NSCLC): > 63 µM | TGI (KM12 colon): > 100 µM | TGI (XF 498 CNS): 22.2 µM | TGI (HCT-116 colon): 6.12 µM | TGI (SN12C renal): > 63.8 µM | TGI (NCI-H522 lung): > 100 µM | TGI (SK-MEL-5 melanoma): 14.5 µM | TGI (EKVX NSCLC): > 55.5 µM | TGI (M19-MEL melanoma): 30.7 µM | TGI (OVCAR-8 ovarian): 34.1 µM
